Assay results published in patent publication US10889812B2, “Short non-coding protein regulatory RNAs (sprRNAs) and methods of use” (University of Maryland, Baltimore, priority 2014, dated 2021).
Entries after “also recorded” stand apart in the source; their conditions may differ.

Legend:
p-ERM = assay: IP with anti-p-ERM antibody followed by RT-PCR in transfected H1792 cells; assay type: binding, human; conditions: H1792 cells transfected with the oligonucleotide
Source text: We next wanted to determine the site critical for piR-L-163's binding toP-ERM. We first analyzed the piR-L-163 sequence and identified a candidate motif “UUNNUUUNNUU” (SEQ ID NO:495) with potentially critical for the binding (FIG. 5a). We then generated 5 mutant forms of piR-L-163 named as M1-M5 (FIG. 5b and Table 3) to test their potential impact on the p-ERM binding. For this experiment, we used H1792 cells because these cells expressed extremely low level of endogenous piR-L-163 but considerable amount of p-ERM (FIG. 5c and FIG. 11a). H1792 cells were transfected with Scr (control), Ant-163, piR-L-163 (WT), or Mutant 1 (M1) to Mutant 5 (M5) RNA oligonucletides, respectively. An anti-p-ERM antibody was used for IP followed by RT-PCR using primers specific for Scr, Ant-163, piR-L-163, or M1-M5 (Table 6) to detect the corresponding oligonucleotides.
To amplify sncRNAs, we added an adaptor to the 3′ end, a process including adaptor ligation, RT and PCR (de Vanssay, A. et al. Paramutation in Drosophila linked to emergence of a piRNA-producing locus. Nature 490, 112-115 (2012); Li, Z. et al. Characterization of viral and human RNAs smaller than canonical MicroRNAs. J Virol. 83, 12751-12758 (2009)). For adaptor ligation, the adaptor /5′rapp/CTGTAGGCACCATCAAT/3′ddc/ (SEQ ID NO:499) with both 5′ and 3′ modification was used. Briefly, mixed 1 μl (10 pmol, ˜55 ng) of RNA 3′ adaptor and 4.4 μl (˜100 ng) of purified sncRNAs in a 1.5 ml EP tube; Incubated at 72° C. for 2 min, then placed on ice immediately and kept it on ice for at least 1 min; Added the following reagents (New England Biolabs) to the above tube: 0.8 μl 10×RNA ligase buffer, 1 μl RNase inhibitor, and 1 μl single strand RNA ligase; Mixed it well and incubated at 37° C. for 1 hr, then terminated the reaction at 65° C. for 15 min. For RT, SuperScript™ III First-Strand Synthesis System (Invitrogen) was used according to the manufacturer's instructions with gene specific primer (5′-[…]-3′) (SEQ ID NO:500). For PCR, a common reverse primer (5′-[…]-3′) (SEQ ID NO:501) and primers specific for individual sncRNAs (Table 6). Amplification conditions were denaturation at 95° C. for 30 s (5 min for the first cycle), annealing at 60° C. for 20 s and extension at 72° C. for 20 s (2 min for the last cycle) for 25 cycles.
For IP using anti-human Moesin or p-ERM antibodies, anti-Moesin (Clone Q480, Catalog No. 3150, Cell Signaling) or anti-p-ERM (Clone 41A3, Catalog No. 3149, Cell Signaling) antibodies were used and a rabbit IgG was used as a control. Briefly, Saturated protein G agarose beads (Sigma-Aldrich) with rabbit IgG, anti-Moesin or anti-p-ERM antibodies, respectively (1 μg antibody was used for 4 μl agarose beads) at 4° C. for 3 hrs, centrifuged at 2,200×g for 5 min, and discarded the upper aqueous phase; (2) Protein extracts prepared from cells using lysis buffer (20 mM Tris-cl, pH7.6, 150 mM NaCl, 20 mM KCl, 1.5 mM MgCl2, 0.5% NP-40, 0.5 mM PMSF) were pre-cleared using protein G agarose at 4° C. for 2 hrs, centrifuged at 2,200×g for 5 min, and transferred the upper aqueous phase to above tubes with agarose beads saturated with antibodies, respectively; Kept the tubes rotating overnight at 4° C., centrifuged at 2,200×g for 5 min, and washed the beads with lysis buffer twice; Extracted total RNAs from beads using Trizol Reagent (Life Technologies); Amplification of piR-L-163 or its mutants was performed according to the steps described in the “RT-PCR” section.

HBE4 cells [1] = assay: Wound healing assay (gap closure); assay type: cell-based, human; conditions: HBE4, vs Scr control
Source text: (§1) For cell migration, we used two complementary assays. […] To compensate potential differences in the cell numbers among different treatment conditions, we seeded 10% less cells for Ant-163 treated HBE4 cells and 10% more cells for piR-L-163 transfected H1792 cells.
(§2) Two complimentary methods were used. For quantitative fluorescent dye assay, Innocyto™ Cell migration Assay kit (EMD Millipore) was used. Briefly, 24 hrs after treatment, 1×10^5 cells (10% less for Ant-163 treated cells or 10% more for piR-L-163 treated cells) were loaded to the upper chamber with growth factor-free Keratinocyte-SFM for (HBE4 cells) or serum-free DMEM (for H1792 cells) with the bottom chamber exposed to completed culture medium. Negative controls were used with 3 μM Latrunculin A. After 12 hrs incubation, fluorescence was measured using a fluorescence plate reader 485 nm (excitation) and 520 nm (emission) according to the manufacturer's instruction. For wound-healing assay, cells (24 hrs after treatment with different DNA or RNA oligonucleotides) were grown to confluence followed by scratching with a pipette tip to create a gap. The floating cells were removed and the gaps were monitored/photographed every 12 hrs.

HBE4 cells [2] = assay: Trans-well invasion assay; assay type: cell-based, human; conditions: HBE4, 12 hrs, vs Scr, after 15% downward adjustment
Source text: (§3) We then tested the potential impact of piR-L-163 in cell migration and invasion, two of the properties involving ERM's biological functions (Fehon, R. G., Mclatchey, A. I. & Bretscher, A. Organizing the cell cortex: the role of ERM proteins. Nat Rev Mol Cell Biol. 11, 276-287 (2010); Hunter, K. W. Ezrin, a key component in tumor metastasis. Trends Mol. Med. 10, 201-204 (2004); Luo, Y. et al. Recognition of CD146 as an ERM-binding protein offers novel mechanisms for melanoma cell migration. Oncogene 31, 306-321 (2013); Clucas, J. & Valderrama, F. ERM proteins in cancer progression. J Cell Sci. 128, 1253 (2015)).
(§4) Briefly, 24 hrs after transfection, 6×10^4 cells were placed in the upper chamber of Matrigel Invasion Chambers (BD Bioscience) with growth factor-free Keratinocyte-SFM and the bottom chamber were exposed to Keratinocyte-SFM medium supplemented with L-Glutamine, prequalified human recombinant EGF 1-53 and BPE. Invading cells were evaluated after 12 hrs according to the manufacturer's instruction. The numbers of invading cells were adjusted 15% downwards for Ant-163 treated cells or 15% upwards for piR-L-163 treated cells to compensate the differences for the proliferation rates.

H1792 cells [3] = assay: Trans-well invasion assay; assay type: cell-based, human; conditions: H1792, vs control RNA oligonucleotides
Source text: as §3, §4

H1792 cells [4] = assay: Wound healing assay (gap closure); assay type: cell-based, human; conditions: H1792, vs Scr control, Ant-163 or a mutant piR-L-163
Source text: as §1, §2

| Substance | oligonucleotide detected by RT-PCR in anti-p-ERM IP products (binding to p-ERM) (p-ERM) | gap closure (HBE4 cells [1]) | invasion capability (HBE4 cells [2]) | invasion capability (H1792 cells [3]) | gap closure (H1792 cells [4]) |
| --- | --- | --- | --- | --- | --- |
| Ant-163: DNA sequence antisense to piR-L-163, SEQ ID NO:496, 5′-GGTCAGAGAATCAAAGTAACATCATGATAT-3′ (DNA, backbone and methylation of C not given here) | no RT-PCR band could be detected | faster gap closure | significantly increased invasion capability; also recorded: increased invading cells | no impact | – |
| piR-L-163: sprRNA, SEQ ID NO:282; piRNA-L aligned to intron 10 of LAMC2; AUAUCAUGAUGUUACUUUGAUUCUCUGACC with 3′ 2′-O-methylation (listed as RNA, chemistry not fully specified; listed as Homo sapiens) | strong RT-PCR band was detected | – | – | significantly decreased invasion capability; also recorded: significantly reduced the number of invading cells | slower gap closure |
